Data as given in patent publication US9757405B2, “Compositions comprising rutin useful for the treatment of tumors resistant to chemotherapy” (PROBIOTICAL S.P.A., priority 2013, dated 2017).

Experiments:
[1] = Cell viability of non-tumor healthy fibroblasts HMF; conditions: human
Source text: (§1) The activity of the association of rutin with synthetic chemotherapeutics (cyclophosphamide) and of the association of rutin with arctigenin, arctiin, berberine, berbamine, sanguinarine, chelerythrine (referred to with the term “extracts” in the tables), was studied on resistant cell lines of adenocarcinomas and carcinomas compared with chemosensitive tumor cell lines and with line cells.
(§2) In particular, chemoresistant human tumor cells MDA-MB-231 (breast adenocarcinoma), ECV-304 (bladder carcinoma), HuH-7 (hepatocellular carcinoma) and HTB-43 (squamous cell carcinoma of the pharynx), chemosensitive tumor cells MCF-7 (breast adenocarcinoma) and non-tumor healthy human mammal fibroblasts (HMF) have been used.

[2] = tested on: MDA-MB-231 (breast adenocarcinoma) cells; test: Cell viability of chemoresistant MDA-MB-231 cells; assay type: cell-based, human; conditions: alone or in association with cyclophosphamide
Source text: as §1, §2

Row | Compound | viability at 850 ng/ml [1] [%] | viability at 1000 ng/ml [1] [%] | viability at 1300 ng/ml [1] [%] | Synergic effect in association with cyclophosphamide [2]
1 | O=P1(N(CCCl)CCCl)NCCCO1 (stereo not shown) [Cyclophosphamide, cyclophosphamide] | 54 | 48 | 42 | –
2 | O=c1c(O)c(-c2ccc(O)c(O)c2)oc2cc(O)cc(O)c12 [Quercetin, quercetin] | – | – | – | absence of synergic effects
